Results from US4962108A, “Antibacterial quinoline compounds” (Warner-Lambert Company, priority 1988, dated 1990).
≈ marks a conversion by molar mass, not a printed value. Read-outs that look alike come from different tables or passages of the source.

Assays:
Assay in all cases: in vitro antibacterial activity, microtitration dilution method
Type in all cases: cell-based
[1] = system: Streptococcus pyogenes C-203
Source text: (§1) Agents & Chemoth., 6, 124 (1974), which is incorporated herein by reference.

[2] = system: Pseudomonas aeruginosa UI-18
Source text: as §1

[3] = system: Staphylococcus aureus H 228
Source text: as §1

[4] = system: Staphylococcus aureus UC-76
Source text: as §1

[5] = system: Klebsiella pneumoniae MGH-2
Source text: as §1

[6] = system: Streptococcus faecalis MGH-2; conditions: Enterococcus faecalis
Source text: as §1

[7] = system: Streptococcus pneumoniae SV-1
Source text: as §1

Escherichia coli Vogel = conditions: read-out: minimal inhibitory concentration (MIC)
Source text: (§2) The compounds of the invention display antibacterial activity when tested by the microtitration dilution method as described in Heifetz, et al, Antimicr. Agents & Chemoth., 6, 124 (1974), which is incorporated herein by reference.
(§3) By use of the above reference method, the following minimum inhibitory concentration value (MICs in μg/ml) shown in Table I were obtained for representative compounds of the invention.

Proteus rettgeri M 1771 = conditions: Providencia rettgeri, M1771, read-out: minimal inhibitory concentration (MIC)
Source text: as §2, §3

[8] = system: Enterobacter cloacae MA 2646
Source text: as §2, §3

[9] = C203, in vitro, Streptococcus pyogenes C-203, read-out: minimal inhibitory concentration (MIC)
[10] = UI18, in vitro, Pseudomonas aeruginosa UI-18, read-out: minimal inhibitory concentration (MIC)
[11] = Staphylococcus aureus, H228, read-out: minimal inhibitory concentration (MIC)
[12] = UC76, in vitro, Staphylococcus aureus UC-76, read-out: minimal inhibitory concentration (MIC)
[13] = MGH2, in vitro, Klebsiella pneumoniae MGH-2, read-out: minimal inhibitory concentration (MIC)
[14] = MGH2, read-out: minimal inhibitory concentration (MIC)
[15] = SV1, in vitro, Streptococcus pneumoniae SV-1, read-out: minimal inhibitory concentration (MIC)
[16] = MA2646, in vitro, Enterobacter cloacae MA 2646, read-out: minimal inhibitory concentration (MIC)
[17] = H228, in vitro, Staphylococcus aureus H 228, read-out: minimal inhibitory concentration (MIC)
[18] = MGH2, in vitro, Streptococcus faecalis MGH-2, read-out: minimal inhibitory concentration (MIC)
[19] = Pseudomonas aeruginosa, UI18, read-out: minimal inhibitory concentration (MIC)
[20] = Klebsiella pneumoniae, MGH2, read-out: minimal inhibitory concentration (MIC)
[21] = Enterobacter cloacae, MA2646, read-out: minimal inhibitory concentration (MIC)
[22] = Staphylococcus aureus, UC76, read-out: minimal inhibitory concentration (MIC)

Row | SMILES | MIC [1, 9] [µg/mL] | MIC [2, 10] [µg/mL] | MIC [3, 11] [µg/mL] | MIC [4, 12] [µg/mL] | MIC [5, 13] [µg/mL] | MIC [6, 14] [µg/mL] | MIC [7, 15] [µg/mL] | MIC (Escherichia coli Vogel) [µg/mL] | MIC (Proteus rettgeri M 1771) [µg/mL] | MIC [8, 16] [µg/mL] | MIC ([1]; Streptococcus pyogenes, C203, read-out: minimal inhibitory concentration (MIC)) [µg/mL] | MIC [3, 17] [µg/mL] | MIC [6, 18] [µg/mL] | MIC [2, 19] [µg/mL] | MIC [5, 20] [µg/mL] | MIC [8, 21] [µg/mL] | MIC [4, 22] [µg/mL] | MIC ([7]; Streptococcus pneumoniae, SV1, read-out: minimal inhibitory concentration (MIC)) [µg/mL]
1 | CCn1cc(C(=O)O)c(=O)c2cc(F)c(N3CC4CCCC3CN4)c(F)c21 (stereo not drawn) [Example 1, 7-(6,8-Diazabicyclo[3.2.2]non-6-yl)-1-ethyl-6,8-difluoro-1,4-dihydro-4-oxo-3-quinolinecarboxylic acid] | 1.6 (≈ 4.24 µM) | 3.1 (≈ 8.21 µM) | 0.2 (≈ 0.53 µM) | 0.05 (≈ 0.132 µM) | 0.8 (≈ 2.12 µM) | 0.8 (≈ 2.12 µM) | 0.8 (≈ 2.12 µM) | 0.4 (≈ 1.06 µM) | 0.8 (≈ 2.12 µM) | 0.4 (≈ 1.06 µM) | – | – | – | – | – | – | – | –
2 | O=C(O)c1cn(C2CC2)c2c(F)c(N3CC4CCCC3CN4)c(F)cc2c1=O (stereo not drawn) [Example 2, 1-Cyclopropyl-7-(6,8-diazabicyclo[3.2.2]non-6-yl)-6,8-difluoro-1,4-dihydro-4-oxo-3-quinolinecarboxylic acid] | – | 0.8 (≈ 2.05 µM) | – | 0.05 (≈ 0.128 µM) | 0.2 (≈ 0.514 µM) | – | 0.2 (≈ 0.514 µM) | 0.4 (≈ 1.03 µM) | 0.4 (≈ 1.03 µM) | 0.1 (≈ 0.257 µM) | 0.8 (≈ 2.05 µM) | 0.05 (≈ 0.128 µM) | 0.2 (≈ 0.514 µM) | – | – | – | – | –
3 | O=C(O)c1cn(C2CC2)c2nc(N3CC4CCCC3CN4)c(F)cc2c1=O (stereo not drawn) [Example 3, 1-cyclopropyl-7-(6,8-diazabicyclo[3.2.2]non-6-yl)-6-fluoro-1,4-dihydro-4-oxo-1,8-naphthyridine-3-carboxylic acid] | 0.1 (≈ 0.269 µM) | – | 0.2 (≈ 0.537 µM) | 0.1 (≈ 0.269 µM) | – | – | 0.05 (≈ 0.134 µM) | 0.03 (≈ 0.0806 µM) | 0.4 (≈ 1.07 µM) | – | – | – | 0.2 (≈ 0.537 µM) | 0.4 (≈ 1.07 µM) | 0.1 (≈ 0.269 µM) | 0.05 (≈ 0.134 µM) | – | –
4 | CCn1cc(C(=O)O)c(=O)c2cc(F)c(N3CC4CCCC3CN4C)c(F)c21 (stereo not drawn) [Example 4, 1-Ethyl-6,8-difluoro-1,4-dihydro-7-(8-methyl-6,8-diazabicyclo[3.2.2]non-6-yl)-4-oxo-3-quinolinecarboxylic acid] | 1.6 (≈ 4.09 µM) | 12.5 (≈ 31.9 µM) | 0.2 (≈ 0.511 µM) | 0.1 (≈ 0.255 µM) | 1.6 (≈ 4.09 µM) | 0.8 (≈ 2.04 µM) | 0.8 (≈ 2.04 µM) | 0.8 (≈ 2.04 µM) | 6.3 (≈ 16.1 µM) | 1.6 (≈ 4.09 µM) | – | – | – | – | – | – | – | –
5 | CCN[C@@H]1C[C@H]2CC[C@@H](C1)N2c1nc2c(cc1F)c(=O)c(C(=O)O)cn2C1CC1 [Example 5a, 1-cyclopropyl-7-[3-exo(ethylamino)-8-azabicyclo[3.2.1]oct-8-yl]-6-fluoro-1,4-dihydro-4-oxo-1,8-naphthyridine-3-carboxylic acid] | 0.4 (≈ 0.999 µM) | 1.6 (≈ 4 µM) | 0.2 (≈ 0.499 µM) | – | 0.4 (≈ 0.999 µM) | – | 0.2 (≈ 0.499 µM) | 0.2 (≈ 0.499 µM) | 3.1 (≈ 7.74 µM) | 0.8 (≈ 2 µM) | – | – | 0.4 (≈ 0.999 µM) | – | – | – | 0.2 (≈ 0.499 µM) | –
6 | CCN[C@H]1C[C@H]2CC[C@@H](C1)N2c1nc2c(cc1F)c(=O)c(C(=O)O)cn2C1CC1 [Example 5b, 1-Cyclopropyl-7-[3-endo(ethylamino)-8-azabicyclo[3.2.1]oct-8-yl]-6-fluoro-1,4-dihydro-4-oxo-1,8-naphthyridine-3-carboxylic acid] | 0.4 (≈ 0.999 µM) | 3.1 (≈ 7.74 µM) | – | 0.4 (≈ 0.999 µM) | 0.8 (≈ 2 µM) | 0.8 (≈ 2 µM) | 0.4 (≈ 0.999 µM) | 0.4 (≈ 0.999 µM) | 3.1 (≈ 7.74 µM) | 0.8 (≈ 2 µM) | – | 0.8 (≈ 2 µM) | – | – | – | – | – | –
7 | CCN[C@H]1C[C@H]2CC[C@@H](C1)N2c1c(F)cc2c(=O)c(C(=O)O)cn(C3CC3)c2c1F [Example 5c, 1-cyclopropyl-7-[3-endo(ethylamino)-8-azabicyclo[3.2.1]oct-8-yl]-6,8-difluoro-1,4-dihydro-4-oxo-3-quinolinecarboxylic acid] | 0.4 (≈ 0.958 µM) | 3.1 (≈ 7.43 µM) | – | – | 0.8 (≈ 1.92 µM) | 0.8 (≈ 1.92 µM) | 0.4 (≈ 0.958 µM) | 0.4 (≈ 0.958 µM) | 3.1 (≈ 7.43 µM) | 0.4 (≈ 0.958 µM) | – | 0.8 (≈ 1.92 µM) | – | – | – | – | 0.2 (≈ 0.479 µM) | –
8 | CCN[C@@H]1C[C@H]2CC[C@@H](C1)N2c1c(F)cc2c(=O)c(C(=O)O)cn(C3CC3)c2c1F [Example 5d, 1-cyclopropyl-7-[3-exo(ethylamino)-8-azabicyclo[3.2.1]oct-8-yl]-6,8-difluoro-1,4-dihydro-4-oxo-3-quinolinecarboxylic acid] | 0.1 (≈ 0.24 µM) | 3.1 (≈ 7.43 µM) | 0.2 (≈ 0.479 µM) | 0.1 (≈ 0.24 µM) | 0.4 (≈ 0.958 µM) | – | 0.1 (≈ 0.24 µM) | 0.2 (≈ 0.479 µM) | 1.6 (≈ 3.83 µM) | 0.2 (≈ 0.479 µM) | – | – | 0.2 (≈ 0.479 µM) | – | – | – | – | –
9 | CCN[C@@H]1C[C@H]2CC[C@@H](C1)N2c1cc2c(cc1F)c(=O)c(C(=O)O)cn2C1CC1 [Example 5e, 1-cyclopropyl-7-[3-exo(ethylamino)-8-azabicyclo[3.2.1]oct-8-yl]-6-fluoro-1,4-dihydro-4-oxo-3-quinolinecarboxylic acid] | 0.4 (≈ 1 µM) | 3.1 (≈ 7.76 µM) | – | – | 0.8 (≈ 2 µM) | – | 0.2 (≈ 0.501 µM) | 0.4 (≈ 1 µM) | 3.1 (≈ 7.76 µM) | 0.8 (≈ 2 µM) | – | 0.4 (≈ 1 µM) | 0.4 (≈ 1 µM) | – | – | – | 0.2 (≈ 0.501 µM) | –
10 | CCN[C@H]1C[C@H]2CC[C@@H](C1)N2c1cc2c(cc1F)c(=O)c(C(=O)O)cn2C1CC1 [Example 5f, 1-cyclopropyl-7-[3-endo(ethylamino)-8-azabicyclo[3.2.1]oct-8-yl]-6-fluoro-1,4-dihydro-4-oxo-3-quinolinecarboxylic acid] | 1.6 (≈ 4.01 µM) | 6.3 (≈ 15.8 µM) | – | 0.8 (≈ 2 µM) | 3.1 (≈ 7.76 µM) | – | – | 1.6 (≈ 4.01 µM) | 12.5 (≈ 31.3 µM) | 1.6 (≈ 4.01 µM) | – | 3.1 (≈ 7.76 µM) | 3.1 (≈ 7.76 µM) | – | – | – | – | 1.6 (≈ 4.01 µM)
11 | O=C(O)c1cn(C2CC2)c2cc(N3CC4CCCC3CN4)c(F)cc2c1=O (stereo not drawn) [Example 7, 1-Cyclopropyl-7-(6,8-diazabicyclo[3.2.2]non-6-yl)-6-fluoro-1,4-dihydro-4-oxo-3-quinolinecarboxylic acid] | 0.05 (≈ 0.135 µM) | – | – | 0.025 (≈ 0.0673 µM) | – | – | 0.05 (≈ 0.135 µM) | 0.05 (≈ 0.135 µM) | 0.4 (≈ 1.08 µM) | – | – | 0.1 (≈ 0.269 µM) | 0.1 (≈ 0.269 µM) | 0.4 (≈ 1.08 µM) | 0.1 (≈ 0.269 µM) | 0.05 (≈ 0.135 µM) | – | –
12 | O=C(O)c1cn(C2CC2)c2c(Cl)c(N3CC4CCCC3CN4)c(F)cc2c1=O (stereo not drawn) [Example 8, 8-Chloro-1-cyclopropyl-7-(6,8-diazabicyclo[3.2.2]non-6-yl)-6-fluoro-1,4-dihydro-4-oxo-3-quinolinecarboxylic acid] | 0.1 (≈ 0.246 µM) | 0.8 (≈ 1.97 µM) | 0.2 (≈ 0.493 µM) | 0.05 (≈ 0.123 µM) | 0.2 (≈ 0.493 µM) | – | 0.1 (≈ 0.246 µM) | 0.2 (≈ 0.493 µM) | 0.4 (≈ 0.986 µM) | 0.2 (≈ 0.493 µM) | – | – | 0.2 (≈ 0.493 µM) | – | – | – | – | –
